For test [1], the system named is Locomotor Activity in Mice. The test is described as follows: Inhibition of Locomotor Activity in Mice. The format is in vivo. The settings on record: Mus musculus, IP.
The target in test [2] is [^3 H]Spiroperidol Binding (Rattus norvegicus, UniProt P61169). The test is described as follows: Inhibition of [^3 H]Spiroperidol Binding, receptor assay.
Test [3] concerns Brain Dopamine Synthesis in Rats. Nature of the test: % Reversal of Brain Dopamine Synthesis in Rats. The format is in vivo. The settings on record: Rattus norvegicus, IP.

Usually ED50 stands for the dose that gives a 50% effect, or the effect in half of the subjects. Read a low ED50 as greater potency. What is called IC50 is the concentration that inhibits the measured activity by half. What is called inhibition in vivo is the relative decrease from the control value, in per cent.

Like-named read-outs stand apart in the source and are kept apart here.

Sequence of [^3 H]Spiroperidol Binding (P61169 whole entry): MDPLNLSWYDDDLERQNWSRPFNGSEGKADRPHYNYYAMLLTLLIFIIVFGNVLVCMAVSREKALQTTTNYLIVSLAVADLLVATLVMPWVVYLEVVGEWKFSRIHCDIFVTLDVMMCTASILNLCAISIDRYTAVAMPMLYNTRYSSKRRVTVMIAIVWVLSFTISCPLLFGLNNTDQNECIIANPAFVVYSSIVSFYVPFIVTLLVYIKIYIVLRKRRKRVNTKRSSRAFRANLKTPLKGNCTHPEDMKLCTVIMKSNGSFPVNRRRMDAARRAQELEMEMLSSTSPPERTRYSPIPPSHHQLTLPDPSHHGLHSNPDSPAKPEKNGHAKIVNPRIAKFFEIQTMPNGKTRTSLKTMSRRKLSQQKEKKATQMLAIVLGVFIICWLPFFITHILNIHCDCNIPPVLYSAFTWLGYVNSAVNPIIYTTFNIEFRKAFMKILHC

For the molecule `C(#Cc1cccnc1)CCCN1CC=C(c2cccs2)CC1` [Example 8, 3-[5-[3,6-Dihydro-4-(2-thienyl)-1(2H)-pyridinyl]-1-pentynyl]pyridine], the ED50 in test [1] is 2.7 mg/kg. In test [2], this molecule came in with an IC50 of 209 nM.
As for `CNc1ccc(C#CCCN2CC=C(c3ccc(F)cc3)CC2)cn1` [Example 28, 5-[4-[4-(9-Fluorophenyl)-3,6-dihydro-1(2H)-pyridinyl]-1-butynyl]-N-methyl-2-pyridinamine], in test [1], the ED50 came to 0.6 mg/kg. Moreover, the IC50 in test [2] (read-out: Inhibition of [^3 H]Spiroperidol Binding IC50, [^3 H]spiroperidol radioligand) is 1270 nM. Besides, the inhibition in vivo at 10 mg/kg in test [3] was 57%.
The molecule `Nc1ccc(C#CCCN2CC=C(c3ccccc3)CC2)cc1` [Example 20, 4-[4-(3,6-Dihydro-4-phenyl-1(2H)-pyridinyl)-1-butynyl]benzenamine] displayed an ED50 in test [1] of 0.36 mg/kg. In test [2], this molecule registered an IC50 of 431 nM. Besides, the inhibition in vivo at 10 mg/kg in test [3] turned out to be 51%.
The like results for `CNc1ccc(C#CCCN2CC=C(c3ccccc3)CC2)cc1` [Example 27, 4-[4-(3,6-Dihydro-4-phenyl-1(2H)-pyridinyl)-1-butynyl]-N-methylbenzenamine] were, in that order, 0.56 mg/kg, 129 nM and 45%.
The molecule `CC(=O)Nc1ccc(C#CCCN2CC=C(c3ccccc3)CC2)cn1` [Example 25, N-[5-[4-(3,6-Dihydro-4-phenyl-1(2H)-pyridinyl)-1-butynyl]-2-pyridinyl]acetamide] showed an ED50 in test [1] of 0.16 mg/kg.
Consider `O=[N+]([O-])c1ccc(C#CCCN2CC=C(c3ccccc3)CC2)cc1` [Example 10, 1,2,3,6-Tetrahydro-1-[4-(4-nitrophenyl)-3-butynyl]-4-phenylpyridine], for which the ED50 in test [1] came to 2.6 mg/kg. This molecule registered an IC50 in test [2] of 394 nM. The inhibition in vivo at 10 mg/kg in test [3] worked out at 42%.
`CNc1ccc(C#CCCN2CC=C(c3ccccc3)CC2)nc1` [Example 26, 6-[4-(3,6-Dihydro-4-phenyl-1(2H)-pyridinyl)-1-butynyl]-N-methyl-3-pyridinamine] came in with an ED50 in test [1] of 0.22 mg/kg. In addition, the IC50 in test [2] amounted to 138 nM. Besides, the inhibition in vivo at 10 mg/kg in test [3] came out at 0%.
In test [1], `Nc1ccc(C#CCCN2CC=C(c3ccccc3)CC2)cn1` [Example 21, 5-[4-(3,6-Dihydro-4-phenyl-1(2H)-pyridinyl)-1-butynyl]-2-pyridinamine] had an ED50 of 0.07 mg/kg. For the same molecule, the IC50 in test [2] came out at 25 nM. In addition, in test [3], the inhibition in vivo at 10 mg/kg was 65%.
`CS(=O)(=O)N(c1ccc(C#CCCN2CC=C(c3ccccc3)CC2)nc1)S(C)(=O)=O` [Example 31, N-(Methylsulfonyl)-N-[6-[4-(3,6-dihydro-4-phenyl-1(2H)-pyridinyl)-1-butynyl]-3-pyridinyl]methanesulfonamide] showed an ED50 in test [1] of 0.53 mg/kg. For the same molecule, the IC50 in test [2] amounted to 94 nM. Moreover, the inhibition in vivo at 10 mg/kg in test [3] is 0%.
For `C(#Cc1cccnc1)CCN1CC=C(c2cccs2)CC1` [Example 3, 3-[4-[3,6-Dihydro-4-(2-thienyl)-1(2H)-pyridinyl]-1-butynyl]pyridine], the ED50 in test [1] came out at 0.54 mg/kg. Besides, in test [2], the IC50 was found to be 354 nM. The inhibition in vivo at 10 mg/kg in test [3] amounted to 53%.
`C(#Cc1cnc2ccccc2c1)CCCN1CC=C(c2ccccc2)CC1` [Example 6, 3-[5-(3,6-Dihydro-4-phenyl-1(2H)-pyridinyl)-1-pentynyl]quinoline]: it took a dose of 3.6 mg/kg to reach the 50% effect level in test [1] (ED50).
As to `C(#Cc1cnc2ccccc2c1)CCN1CC=C(c2ccccc2)CC1` [Example 1, 3-[4-(3,6-Dihydro-4-phenyl-1(2H)-pyridinyl)-1-butynyl]quinoline], the IC50 in test [2] came out at 41 nM. Moreover, the inhibition in vivo at 10 mg/kg in test [3] was 28%.
As for `C(#Cc1cccs1)CCN1CC=C(c2ccccc2)CC1` [Example 16, 1,2,3,6-Tetrahydro-4-phenyl-1-[4-(2-thienyl)-3-butynyl]pyridine], it took a dose of 7.6 mg/kg to reach the 50% effect level in test [1] (ED50). For the same molecule, the IC50 in test [2] was 115 nM.
On to `CN(C)c1ccc(C#CCCN2CC=C(c3ccccc3)CC2)nc1` [Example 13, 6-[4-(3,6-Dihydro-4-phenyl-1(2H)-pyridinyl)-1-butynyl]-N,N-dimethyl-3-pyridinamine], for which it took a dose of 0.28 mg/kg to reach the 50% effect level in test [1] (ED50). Besides, the IC50 in test [2] was determined as 192 nM. For the same molecule, the inhibition in vivo at 10 mg/kg in test [3] amounted to 49%.
The like results for `O=C(Nc1ccc(C#CCCN2CC=C(c3ccccc3)CC2)nc1)c1cccs1` [Example 23, N-[6-[4-(3,6-Dihydro-4-phenyl-1(2H)-pyridinyl)-1-butynyl]-3-pyridinyl]-2-thiophenecarboxamide] were, in that order, 1.5 mg/kg, 1090 nM and 0%.
In test [1], `CNc1ccc(C#CCCN2CC=C(c3ccccc3)CC2)cn1` [Example 29, 5-[4-(3,6-Dihydro-4-phenyl-1(2H)-pyridinyl)-1-butynyl]-N-methyl-2-pyridinamine] gave an ED50 of 6.1 mg/kg. Moreover, the IC50 in test [2] is 77 nM. In addition, the inhibition in vivo at 10 mg/kg in test [3] was 42%.
The like results for `C(#Cc1cccnc1)CCN1CC=C(c2ccccc2)CC1` [Example 4, 3-[4-(3,6-Dihydro-4-phenyl-1(2H)-pyridinyl)-1-butynyl]pyridine] were, in that order, 0.07 mg/kg, 50 nM and 79%.
In the case of `O=[N+]([O-])c1ccc(C#CCCN2CC=C(c3ccccc3)CC2)nc1` [Example 9, 1,2,3,6-Tetrahydro-1-[4-(5-nitro-2-pyridinyl)-3-butynyl]-4-phenylpyridine], in test [1], the 50% effect level (ED50) was put at a dose of 6.9 mg/kg. In test [2], this molecule returned an IC50 of 229 nM.
Consider `C(#Cc1ccccn1)CCN1CC=C(c2ccccc2)CC1` [Example 14, 1,2,3,6-Tetrahydro-4-phenyl-1-[4-(2-pyridinyl)-3-butynyl]pyridine], for which the ED50 in test [1] came to 2.1 mg/kg. This molecule also came in with an IC50 in test [2] of 189 nM. Moreover, in test [3], the inhibition in vivo at 10 mg/kg worked out at 23%.
For `Nc1ccc(C#CCCN2CC=C(c3cccs3)CC2)nc1` [Example 12, 6-[4-[3,6-Dihydro-4-(2-thienyl)-1(2H)-pyridinyl]-1-butynyl]-3-pyridinamine] the same measures were 0.36 mg/kg, 321 nM and 46%.
For `Nc1ccc(C#CCCN2CC=C(c3ccccc3)CC2)nc1` [Example 19, 6-[4-(3,6-Dihydro-4-phenyl-1(2H)-pyridinyl)-1-butynyl]-3-pyridinamine] the same measures were 0.15 mg/kg, 85 nM and 59%.
In test [1], `CS(=O)(=O)Nc1ccc(C#CCCN2CC=C(c3ccccc3)CC2)nc1` [Example 32, N-[6-[4-(3,6-Dihydro-4-phenyl-1(2H)-pyridinyl)-1-butynyl]-3-pyridinyl]methanesulfonamide] displayed an ED50 of 1.1 mg/kg. The molecule also registered an IC50 in test [2] of 64 nM.
In test [1], `CC(=O)Nc1ccc(C#CCCN2CC=C(c3ccccc3)CC2)nc1` [Example 22, N-[6-[4-(3,6-Dihydro-4-phenyl-1(2H)-pyridinyl)-1-butynyl]-3-pyridinyl]acetamide] gave an ED50 of 0.07 mg/kg. The IC50 in test [2] worked out at 70 nM. In addition, the inhibition in vivo at 10 mg/kg in test [3] is 5%.
Consider `CCCNc1ccc(C#CCCN2CC=C(c3ccccc3)CC2)nc1` [Example 30, 6-[4-(3,6-Dihydro-4-phenyl-1(2H)-pyridinyl)-1-butynyl]-N-propyl-3-pyridinamine], for which the ED50 in test [1] was found to be 0.31 mg/kg. In test [2], the half-inhibitory concentration (IC50) is 248 nM.
In turn, `C(#Cc1cncc2ccccc12)CCN1CC=C(c2ccccc2)CC1` [Example 2, 4-[4-(3,6-Dihydro-4-phenyl-1(2H)-pyridinyl)-1-butynyl]isoquinoline] gave an ED50 in test [1] of 2.1 mg/kg. Further, in test [2], the IC50 stood at 101 nM. For the same molecule, the inhibition in vivo at 10 mg/kg in test [3] came to 32%.
With `C(#Cc1cccnc1)CCCN1CC=C(c2ccccc2)CC1` [Example 7, 3-[5-(3,6-Dihydro-4-phenyl-1(2H)-pyridinyl)-1-pentynyl]pyridine], the 50% effect level in test [1] (ED50) was put at a dose of 0.72 mg/kg. This molecule also came in with an IC50 in test [2] of 77.2 nM. For the same molecule, the inhibition in vivo at 10 mg/kg in test [3] worked out at 48%.
Regarding `C(#Cc1ccncc1)CCN1CC=C(c2ccccc2)CC1` [Example 11, 4-[4-(3,6-Dihydro-4-phenyl-1(2H)-pyridinyl)-1-butynyl]pyridine], the ED50 in test [1] turned out to be 0.1 mg/kg. For the same molecule, in test [2], the IC50 stood at 43.4 nM. Further, in test [3], the inhibition in vivo at 10 mg/kg amounted to 79%.
As for `C(#Cc1ccc2[nH]ccc2c1)CCN1CC=C(c2ccccc2)CC1` [Example 15, 5-[4-(3,6-Dihydro-4-phenyl-1(2H)-pyridinyl)-1-butynyl]-1H-indole], the ED50 in test [1] came out at 1 mg/kg. This molecule also came in with an IC50 in test [2] of 78 nM.
Turning to `CC(=O)Nc1ccc(C#CCCN2CC=C(c3ccccc3)CC2)cc1` [Example 24, N-[4-[4-(3,6-Dihydro-4-phenyl-1(2H)-pyridinyl)-1-butynyl]phenyl]acetamide], in test [1], it took a dose of 0.23 mg/kg to reach the 50% effect level (ED50). The molecule also yielded a concentration for half-maximal inhibition (IC50) in test [2] of 50 nM.
For `Nc1ccc(C#CCCN2CC=C(c3ccc(F)cc3)CC2)cn1` [Example 17, 5-[4-[4-(4-Fluorophenyl)-3,6-dihydro-1(2H)-pyridinyl]-1-butynyl]-2-pyridinamine], the ED50 in test [1] was 1.2 mg/kg. Further, the IC50 in test [2] came to 376 nM. The inhibition in vivo at 10 mg/kg in test [3] was 40%.

For the origin of these results see patent US5466698A, “Substituted tetrahydrophyridines and hydroxypiperidines as central nervous system agents” (Warner-Lambert Company, priority 1993, dated 1995).
